# Legend:
# [1] = system: PTZ mouse model of seizures; experiment: PTZ-induced seizures study; format: in vivo; conditions: 30 min pretreatment; for protection from clonic seizures (PTZ) vs vehicle-treated animals / protection from tonic hindlimb seizures (PTZ) vs vehicle-treated animals: test compounds 200 mg/kg IP, CBD 100 mg/kg IP, 60 min, PTZ 100 mg/kg i.p.
# Protocol: Mice were acclimated to the procedure room for at least 30 minutes. Pentylenetetrazole (PTZ; SigmaAldrich) was formulated in water to a concentration of 20 mg/ml. Injections of PTZ were made at a volume of 5 mI/kg to produce a final dose of 100 mg/kg. PTZ injections were i.p. Diazepam was formulated at a concentration of 2 mg/mL and administered at volume of 10 mL/kg to produce a final dose of 20 mg/kg. Time to initial myoclonic and tonic hindlimb extensor response was measured. A 10-min maximum latency to seizure was imposed.
# (§1) The data was expressed as mean+SEM. Statistical analysis using one-way ANOVA with post-hoc Fisher's LSD test was used to determine statistical significance compared to the vehicle-treated animals.
# (§2) Animals received treatments according to Table 3.
# as §2
# [2] = PK study: plasma levels after i.p. administration, LC/MS/MS; format: in vivo, Mouse; conditions: 100 mg/kg i.p.; sampled at 30, 60, 120 min
# Protocol: For testing of each compound, six CD-1 mice were divided into 2 groups of 3. Animals were administered test agents via i.p. route and blood collected at 30, 60 and 120 min, administration as outlined in Table 1. Blood samples were collected in EDTA-coated microfuge tubes, inverted and placed on an ice pack prior to centrifugation and storage at −70° C. Samples were extracted using an acetonitrile/protein precipitation method and levels of test agent analysed by LC/MS/MS.
# Bioanalytical detection method was developed using an LC/MS/MS (ABI 5000 or 5500). Standard curves of the test agent were prepared in an appropriate biological matrix (plasma). Levels of test article was measured in plasma as per the developed method.
# Levels were determined by extrapolating the concentration from a standard curve using linear regression analysis. Method development and bioanalysis was performed by a partner company, Keystone Bioanalytical (North Wales, PA, US).
# [3] = system: MES mouse model of seizures; experiment: Maximal Electroshock (MES) seizure study; format: in vivo; conditions: test compounds 200 mg/kg IP, 30 min pretreatment, CBD 100 mg/kg IP, 60 min, one-way ANOVA, Fisher's LSD
# Protocol: Animals were administered vehicle, phenytoin, CBD or test compounds and gross behavioural observations were done for 30 minutes. Proparacaine hydrochloride ophthalmic solution (Butler AHS, Dublin, OH) was applied approximately 10 minutes prior to testing to numb the eyes. Thirty to sixty minutes after administration of vehicle,phenytoin, CBD or test compounds, 0.9% saline solution (sodium chloride in water) was applied to both eyes and electro-convulsions were produced by an alternating current delivered via corneal electrodes by a Rodent Shocker generator at a frequency of 60 Hz (Harvard Apparatus, Holliston, Mass.). Parameters for the ICR:CD1 mice were 0.2 s stimulus duration at an intensity of 25 mA. The criterion for seizure occurrence were presence of a tonic hind limb extension, defined as extension exceeding a 90-degree angle with the plane of the body. […] Any seizure activity (i.e. clonic seizures defined as rapid spasms or jerky movements of the limbs) prior to tonic hind limb seizure were recorded as presence of seizure (noted as 1-yes, 0-no). After seizure exhibition or 20-second timeout, mice were euthanized via cervical dislocation.
# as §1
# The results of the MES study are illustrated in FIG. 4: MES: Latency in seconds for seizures to occur in mice. Animals received treatments according to Table 2. […] Data are expressed as the average ±SEM. Data were analysed by One-way ANOVA, followed by a post-hoc Fisher's LSD test. ***P<0.001, *P<0.05, n=1 PTZ Study
smiles,measurement,setting,value
"C=C(C)[C@@H]1CCC(C)=C[C@H]1c1c(O)cc(CCc2ccccc2)cc1O [(−)-trans-CBD-PET, (1′R,2′R)-5′-methyl-4-phenethyl-2′-(prop-1-ene-2-yl)-1′,2′,3′,4′-tetrahydro-[1,1′-biphenyl]-2,6-diol]",protection from clonic seizures (PTZ) vs vehicle-treated animals,[1]; listed as (−)-trans CBD-PET,significant protection from clonic seizures
same,protection from tonic hindlimb seizures (PTZ) vs vehicle-treated animals,[1]; listed as (−)-trans CBD-PET,"significant effect, protecting from tonic hindlimb seizures"
same,protection from clonic seizures (PTZ) vs vehicle-treated animals,[1]; listed as CBD-PET,showing activity against both clonic and tonic seizures
same,protection from tonic hindlimb seizures (PTZ) vs vehicle-treated animals,[1]; listed as CBD-PET,showing activity against both clonic and tonic seizures
same,time at which maximal concentration in plasma was achieved after the injection,[2],30 min
"C=C(C)[C@@H]1CCC(C)=C[C@H]1c1c(O)cc(CCc2ccc(O)cc2)cc1O [(−)-trans-CBD-PET-OH, (1′R,2′R)-4-(4-hydroxyphenethyl)-5′-methyl-2′-(prop-1-ene-2-yl)-1′,2′,3′,4′-tetrahydro-[1,1′-biphenyl]-2,6-diol]",effect in the MES study (latency to tonic hindlimb seizure) vs vehicle,[3]; listed as (−)-trans CBD-PET-OH,significantly different from vehicle
same,effect in the MES study (latency to tonic hindlimb seizure) vs vehicle,[3]; listed as CBD-PET-OH,effective
same,protection from tonic hindlimb seizures (PTZ) vs vehicle-treated animals,[1]; listed as (−)-trans CBD-PET-OH,"significant effect, protecting from tonic hindlimb seizures"
same,protection from tonic hindlimb seizures (PTZ) vs vehicle-treated animals,[1]; listed as CBD-PET-OH,particularly effective against tonic seizures
same,time at which maximal concentration in plasma was achieved after the injection,[2],30 min
"C=C(C)[C@@H]1CCC(C)=C[C@H]1c1c(O)cc(CCCCC)cc1O [Cannabidiol, reference compound]",effect in the MES study (latency to tonic hindlimb seizure) vs vehicle,[3],did not produce a significant effect
same,protection from clonic seizures (PTZ) vs vehicle-treated animals,[1],did not produce a significant effect
same,protection from tonic hindlimb seizures (PTZ) vs vehicle-treated animals,[1],did not produce a significant effect
"CN1C(=O)CN=C(c2ccccc2)c2cc(Cl)ccc21 [diazepam, reference compound]","protection from the seizures (PTZ; clonic and tonic hindlimb, FIGS. 5 and 6)","[1]; PO, p<0.05",100%

# — patent US12552733B2, “Terpenophenolic compounds and their use” (Phytotherapeutix Ltd., priority 2020, dated 2026)
